Test results published in US20260008746A1, “CATIONIC LIPID COMPOUND WITH HIGH EFFICIENCY, LOW TOXICITY AND STABLE EXPRESSION, AND COMPOSITION COMPRISNG SAME” (HANGZHOU TIANLONG PHARMACEUTICAL CO., LTD, priority 2023, published 2026).

Columns and labels:
[1] = Determination of particle size and polydispersity index (PDI) of lipid nanoparticles by dynamic light scattering; format: physicochemical; conditions: LNP formulation of named cationic lipid/DSPC/cholesterol/DMG-PEG2000 49:10:39.5:1.5; for Particle size (nm): 90° scattering angle, 25° C
Procedure: The cationic lipids listed in Table 1 were dissolved in ethanol with DSPC (AVT (Shanghai) Pharmaceutical Technology Co., Ltd.), cholesterol (AVT (Shanghai) Pharmaceutical Technology Co., Ltd.) and DMG-PEG2000 according to a molar ratio of 49:10:39.5:1.5, respectively, to prepare lipid solution in ethanol. The lipid solution in ethanol was quickly added to citrate buffer (pH=4 to 5) by ethanol injection method, and vortexed for 30 s for later use. eGFP-mRNA (from Shanghai Biohub International Trade Co., Ltd) or Fluc-mRNA (from Shanghai Biohub International Trade Co., Ltd) was diluted in citrate buffer (pH=4 to 5) to give an aqueous mRNA solution. A certain volume of liposome solution and mRNA aqueous solution were used to prepare liposomes at a weight ratio of total lipids to mRNA of 15:1. The mixtures were sonicated at 25° C. for 15 min (with an ultrasonic frequency of 40 kHz and an ultrasonic power of 800 W). The resulting liposomes were diluted to 10 times volume with PBS, and then ultrafiltered with a 300 KDa ultrafiltration tube to remove ethanol. Then the volume was fixed to a certain volume with PBS to give an LNP formulation encapsulating eGFP-mRNA or Fluc-mRNA using cationic lipid/DSPC/cholesterol/DMG-PEG2000 (49:10:39.5:1.5 in molar percentage).
The particle size and polydispersity index (PDI) were determined by dynamic light scattering using Malvern laser particle size analyzer.
10 μL of the liposome solution was weighed, diluted to 1 mL with RNase-free deionized water, and added to the sample pool. Each sample was measured in triplicate. The measurement conditions were: 90° scattering angle, and 25° C.

[2] = tested on: 293T cells; experiment: Cell survival rate determination (CCK-8); format: cell-based; conditions: for Cell survival rate (%): LNP formulation containing 1.5 μg Fluc-mRNA, 24 hours, CCK-8, absorbance at 450 nm; for cell survival rate lower than that of YK-101: cell survival rate of YK-101 minus that of named substance; for cell survival rate lower than that of YK-107: cell survival rate of YK-107 minus that of named substance; for cell survival rate lower than that of YK-108: cell survival rate of YK-108 minus that of named substance
Outline: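 293T cells were seeded overnight at 10,000 cells/well in 96-well plates, then exposed for 24 h to LNP containing 1.5 μg Fluc-mRNA (cationic:neutral:structural:polymer-conjugated lipid, 49:10:39.5:1.5 molar) or to Lipofectamine 3000. Viability was read by CCK-8, 1 h incubation, absorbance 450 nm.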

[3] = tested on: BALB/C mice; experiment: In vivo imaging of Fluc-mRNA expression in mice delivered by LNP formulations; conditions: for average radiation intensity, 6 h / average radiation intensity, 24 h / average radiation intensity, 48 h / average radiation intensity, 7 d: LNP containing 10 pg Fluc-mRNA, intramuscular, female BALB/C mice
Procedure: The LNP formulation containing […] Fluc-mRNA was injected intramuscularly into female BALB/C mice aged 4-6 weeks old and weighed 17-19 g, and the mice were intraperitoneally injected with fluorescent imaging substrate at specific time points after administration (6h, 24 h, 48h and 7d), where the mice were allowed to move freely for 5 minutes, and then the average radiation intensity (corresponding to fluorescence expression intensity) of the protein expression of the mRNA carried by the LNP in the mice was detected by the IVIS Spectrum small animal in vivo imaging device. The test results are shown in Tables 11 to 14 and FIGS. 12 to 14.

[4] = tested on: 293T cells; experiment: Fluorescent detection of Fluc-mRNA (cell transfection efficiency of LNP formulations); format: cell-based; conditions: for Relative light unit (RLU): LNP formulation containing 0.3 μg Fluc-mRNA, 96-well plate, 24 hours; for Multiples (YK-101): RLU of YK-101 / RLU of named substance; for Multiples (YK-107): RLU of YK-107 / RLU of named substance; for Multiples (YK-108): RLU of YK-108 / RLU of named substance; for Ratio relative to SM-102: RLU of named substance / RLU of SM-102
Outline: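 293T cells seeded at 10,000 per well, cultured overnight, then given LNP carrying 0.3 μg Fluc-mRNA (cationic:neutral:structured:PEG-lipid 49:10:39.5:1.5 molar). Incubated 24 h. Luciferase signal read with kit reagent on an IVIS imaging system.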

| PDI(%) [1] [%] | Particle size (nm) [1] [nm] | Structure (SMILES) | Cell survival rate (%) [2] [%] | cell survival rate lower than that of YK-101 [2] [%] | cell survival rate lower than that of YK-107 [2] [%] | cell survival rate lower than that of YK-108 [2] [%] | average radiation intensity of YK-101, times that of named substance ([3]; 6 h) [times] | average radiation intensity of YK-107, times that of named substance ([3]; 6 h) [times] | average radiation intensity of YK-108, times that of named substance ([3]; 6 h) [times] | average radiation intensity of YK-101, times that of named substance ([3]; 24 h) [times] | average radiation intensity of YK-107, times that of named substance ([3]; 24 h) [times] | average radiation intensity of YK-108, times that of named substance ([3]; 24 h) [times] | average radiation intensity of YK-101, times that of named substance ([3]; 48 h) [times] | average radiation intensity of YK-107, times that of named substance ([3]; 48 h) [times] | average radiation intensity of YK-108, times that of named substance ([3]; 48 h) [times] | average radiation intensity of YK-101, times that of named substance ([3]; 7 d) [times] | average radiation intensity of YK-107, times that of named substance ([3]; 7 d) [times] | average radiation intensity of YK-108, times that of named substance ([3]; 7 d) [times] | average radiation intensity, 6 h ([3]; 6 h) | average radiation intensity, 24 h ([3]; 24 h) | other results |
| --- | --- | --- | --- | --- | --- | --- | --- | --- | --- | --- | --- | --- | --- | --- | --- | --- | --- | --- | --- | --- | --- |
| 15.0 | 209 | CCCCCCCCC(CCCCCC)C(=O)OCCCCCCN(CCCCO)CCCCCCOC(=O)C(CCCCCC)CCCCCCCC (centres unmarked) [ALC-0315, reference compound] | 51.02 | 39.10 | 39.43 | 38.84 | 1.8 | 1.9 | 2.4 | 5.9 | 7.2 | 7.8 | 4.8 | 5.8 | 5.9 | 1.8 | 2.0 | 2.1 | 830590 | 179680 | average radiation intensity, 48 h ([3]; 48 h): 39015; average radiation intensity, 7 d ([3]; 7 d): 6643; Relative light unit (RLU) [4]: 2056890 RLU; Multiples (YK-101) [4]: 9.89; Multiples (YK-107) [4]: 10.87; Multiples (YK-108) [4]: 11.99; Ratio relative to SM-102 [4]: 1.34 |
| 12.5 | 151 | CCCCCCCCC(CCCCCCCC)OC(=O)CCCCCCCN(CCO)CCCCCCCC(=O)OCCC(CCCCCC)CCCCCC [Compound 21, 9-heptadecyl 8-(8-((3-hexylnonyl)oxy)-8-oxoctyl)-((2-hydroxyethyl)amino)octoate, reference compound] | 68.53 | 21.59 | 21.92 | 21.33 | 2.5 | 2.6 | 3.3 | 9.6 | 11.8 | 12.8 | 6.0 | 7.3 | 7.4 | 2.0 | 2.2 | 2.4 | 606680 | 110210 | average radiation intensity, 48 h ([3]; 48 h): 31062; average radiation intensity, 7 d ([3]; 7 d): 6024; Relative light unit (RLU) [4]: 1389141 RLU; Multiples (YK-101) [4]: 14.64; Multiples (YK-107) [4]: 16.10; Multiples (YK-108) [4]: 17.75; Ratio relative to SM-102 [4]: 0.91 |
| 7.7 | 140 | CCCCCCC(CCCCCC)CCOC(=O)CCCCCCCN(CCO)CCCCCCCC(=O)OCCC(CCCCCC)CCCCCC [Compound 23, bis(3-hexylnonyl)-8, 8′-((2-hydroxyethyl)azadialkyl)dioctanoate, reference compound] | 70.91 | 19.21 | 19.54 | 18.95 | 2.5 | 2.7 | 3.4 | 9.4 | 11.6 | 12.5 | 5.6 | 6.8 | 7.0 | 2.1 | 2.3 | 2.4 | 599850 | 112670 | average radiation intensity, 48 h ([3]; 48 h): 33060; average radiation intensity, 7 d ([3]; 7 d): 5863; Relative light unit (RLU) [4]: 1290824 RLU; Multiples (YK-101) [4]: 15.75; Multiples (YK-107) [4]: 17.32; Multiples (YK-108) [4]: 19.10; Ratio relative to SM-102 [4]: 0.84 |
| 12.2 | 138 | CCCCCCCCCCCCC(O)CN(C)CCCCCC(=O)OCC(CCCCCC)CCCCCCCC (centres unmarked) [HHMA, reference compound] | 67.77 | 22.35 | 22.68 | 22.09 | 2.3 | 2.5 | 3.2 | 9.1 | 11.3 | 12.2 | 6.0 | 7.3 | 7.5 | 2.3 | 2.5 | 2.7 | 639280 | 115530 | average radiation intensity, 7 d ([3]; 7 d): 5235; Relative light unit (RLU) [4]: 2047757 RLU; Multiples (YK-101) [4]: 9.93; Multiples (YK-107) [4]: 10.92; Multiples (YK-108) [4]: 12.04; Ratio relative to SM-102 [4]: 1.33 |
